Measured values: patent US8993717B2, “Gadd45beta targeting agents” (Imperial Innovations Limited, priority 2009, dated 2015)
Square brackets hold non-standard residues; d marks the D form. Peptide text beside a SMILES is read from it. * marks the point of attachment. Cbz = O=C(OCc1ccccc1)*

How the values were obtained:
Gadd45β-inhibited MKK7 = target: T1, Gadd45β-inhibited MKK7 (Homo sapiens, UniProt O14733); assay: MKK7 kinase assay in the presence of recombinant hGadd45β; format: biochemical; conditions: 1 nM or 5 nM peptide, 5 μM GST-hGadd45β
T1 construct: expressed in transfected cells; host or cells: HEK-293 (FLAG-MKK7); bacteria (GST-hGadd45β)
T1 sequence (O14733 1-419): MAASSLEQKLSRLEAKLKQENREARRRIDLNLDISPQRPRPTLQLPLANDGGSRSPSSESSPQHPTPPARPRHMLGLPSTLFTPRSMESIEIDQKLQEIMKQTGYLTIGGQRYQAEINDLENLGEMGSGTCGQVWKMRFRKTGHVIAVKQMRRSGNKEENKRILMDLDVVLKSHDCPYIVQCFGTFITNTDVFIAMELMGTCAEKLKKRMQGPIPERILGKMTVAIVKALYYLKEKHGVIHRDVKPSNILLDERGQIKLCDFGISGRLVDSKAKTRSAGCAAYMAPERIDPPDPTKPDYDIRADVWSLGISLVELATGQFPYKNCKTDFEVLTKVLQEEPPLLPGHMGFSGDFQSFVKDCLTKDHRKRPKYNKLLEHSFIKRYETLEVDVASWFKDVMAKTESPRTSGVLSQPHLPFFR
Protocol: In FIG. 6, transient transfection of pcDNA-FLAG-MKK7 in HEK-293 cells was performed using the method of Ca3(PO4)2 precipitation, essentially as described in Papa, S et al., (2004) Nat. Cell Biol. 6, 146-153 and references therein. 36 hrs after transfection, the cells were treated with 100 ng/ml phorbol 12-myristate 13-acetate (PMA) and 1 μM ionomycin for 30 min at 37° C. Cell extracts were prepared as described in example 4 and used for immunoprecipitation with anti-FLAG antibodies (binding to FLAG-MKK7) as described in Papa, S et al., (2004) Nat. Cell Biol. 6, 146-153 and references therein. Briefly, 50 μg of cell lysate from PMA-ionomycin (P/D-treated or untreated, HEK-293 cells transiently expressing FLAG-MKK7 was incubated with 10 μl of anti-FLAG M2 Affinity Gel (SIGMA) for 4 hrs at 4° C. during rotation. The immunoprecipitates were then washed 3 times in lysis buffer and twice more in kinase buffer (10 mM HEPES, 5 mM MgCl2, 1 mM MnCl2,12.5 mM β-glycerophosphate, 2 mM DTT, 4 mM NaF and 0.1 mM Na3VO4). MKK7 catalytic activity was finally measured in kinase assays by incubating FLAG-MKK7 immunoprecipitates at 30° C. for 20 min with 20 μl of kinase buffer containing 2 μM of recombinant GST-JNK1 and 5 μCi of [γ-^32P]ATP) (kinase reaction), as described in Papa, S et a., (2004) Nat. Cell Biol. 6, 146-153 and references therein.
In some reactions, to test the ability of D-tetrapeptide antagonists to disrupt the Gadd45β-MKK7 interaction and so release the catalytic activity of MKK7 from Gadd45β-afforded inhibition, FLAG-MKK7 immunoprecipitates were 1) first pre-incubated for 10 min at 30° C. with either 1 nM or 5 nM of DTP1, DTP2 or negative control (NC) D-tetrapeptides, NC1, NC2, NC3 and NC4, and 2) then incubated for another 10 min at 30° C. with or without 5 μM of a GST-fusion protein of recombinant human (h)Gadd45β (GST-hGadd45β; purified from bacterial lysates as described in Papa, S., (2007) J. Biol. Chem. 282, 19029-19041), before using them for the kinase reaction described above, as indicated in FIG. 6.
In all cases, kinase reactions were terminated by the addition of Laemmli sample buffer. […] For a further discussion of MKK7 kinase assay conditions, the reader is directed to Papa, S et al., (2007) J. Biol. Chem. 282, 19029-19041 and Papa, S et al., (2004) Nat. Cell Biol. 6, 146-153 and the references therein.

[1] = tested on: U266, KMS-11, NCI-H929, BJAB and U937 tumour cell lines; assay: [3H]thymidine incorporation assay in tumour cell lines at 10 μM; format: cell-based, human; conditions: up to 144 hrs, result in words
Protocol: All experiments were performed in triplicate.

Gadd45β/MKK7 interaction [2] = target: T2, Gadd45β/MKK7 interaction (Homo sapiens, UniProt O14733); assay: ELISA competition assay after 48-hr pre-incubation with human serum at 37° C.; format: binding; conditions: for stability after pre-incubation with human serum: result in words
T2 construct: The GST-fused full-length kinase was coated for 16 h at 4° C., at a concentration of 42 nM; made in house
T2 sequence (O14733 1-419): T1 sequence (O14733 1-419)
Protocol: In FIG. 4, Gadd45β/MKK7 binding, competition ELISA assays were carried out to determine the stability of Z-conjugated D-tetrapeptides in human serum. […] ELISA were performed as described in FIG. 3 C. Briefly, 100 μl of 42 nM of recombinant GST-MKK7 in ELISA buffer (25 mM Tris pH 7.5, 150 mM NaCl, 1 mM DTT, 1 mM EDTA) were coated onto wells of 96-well plates by overnight incubation at 4° C. After blocking with 2% of NFDM for 1 hr at 37° C., plates were washed with TPBS, and then 21 nM of recombinant, biotinylated human (h)Gadd45β were added to the wells together with increasing concentrations of tetrapeptides which had either been subjected or had not been subjected to pre-incubation with human serum, as indicated. For a further discussion of the conditions used for the competition ELISA assay, the reader is directed to Tornatore et al 2008 JMB, 378: 97-111 and the references therein.

Gadd45β/MKK7 interaction [3] = target: T2, Gadd45β/MKK7 interaction; assay: ELISA competition assay of biotin-hGadd45β binding to coated GST-MKK7; conditions: Table III, modified peptides
How it was run: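 GST-MKK7 (42 nM) coated in Tris pH 7.5 buffer, 16 h, 4 °C; biotin-hGadd45β (21 nM) added with competitor peptides (0.01–100 nM), 1 h, 37 °C. Streptavidin-HRP/o-phenylenediamine read at 490 nm; binding expressed as % of signal without competitor.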

Q: With `CC(=O)N[C@H](Cc1ccc(O)cc1)C(=O)N[C@H](CC(=O)O)C(=O)N[C@H](Cc1c[nH]cn1)C(=O)N[C@H](CCC(N)=O)C(N)=O` [NC1, Acetyl-(D-Tyr)-(D-Asp)-(D-His)-(D-Gln)-NH2] (Ac-[dY][dD][dH][dQ]-NH2) as the compound, how does the “restoration of MKK7 catalytic activity” value (Gadd45β-inhibited MKK7) read?
A: did not

Q: `CC(=O)N[C@@H](Cc1ccc(O)cc1)C(=O)N[C@@H](CC(=O)O)C(=O)N[C@@H](Cc1c[nH]cn1)C(=O)N[C@@H](C)C(N)=O` [NC2, Acetyl-(L-Tyr)-(L-Asp)-(L-His)-(L-Ala)-NH2] (Ac-YDHA-NH2) was tested. Which “restoration of MKK7 catalytic activity” value (Gadd45β-inhibited MKK7) did it give?
A: did not

Q: `CC(=O)N[C@@H](Cc1ccc(O)cc1)C(=O)N[C@@H](CCC(=O)O)C(=O)N[C@@H](CCCCN)C(=O)N[C@@H](Cc1c[nH]c2ccccc12)C(N)=O` [NC3, Acetyl-(L-Tyr)-(L-Glu)-(L-Lys)-(L-Trp)-NH2] (Ac-YEKW-NH2) was tested. Which “restoration of MKK7 catalytic activity” value (Gadd45β-inhibited MKK7) did it give?
A: did not

Q: `CC(=O)N[C@@H](Cc1ccc(O)cc1)C(=O)N[C@@H](CC(=O)O)C(=O)N[C@@H](CCCCN)C(=O)N[C@@H](Cc1c[nH]c2ccccc12)C(N)=O` [NC4, Acetyl-(L-Tyr)-(L-Asp)-(L-Lys)-(L-Trp)-NH2] (Ac-YDKW-NH2) was tested. Which “restoration of MKK7 catalytic activity” value (Gadd45β-inhibited MKK7) did it give?
A: did not

Q: How did the “tumoricidal/cytotoxic activity in tumour cell lines” value [1] turn out when `NC(=O)[C@H](Cc1ccccc1)NC(=O)[C@H](Cc1c[nH]cn1)NC(=O)[C@H](CC(=O)O)NC(=O)[C@H](Cc1ccc(O)cc1)NC(=O)OCc1ccccc1` [Z-YDHF-NH2] (Cbz-YDHF-NH2) was run?
A: not

Q: And the IC50 (Gadd45β/MKK7 interaction [2])?
A: > 10 µM

Q: What about the “stability after pre-incubation with human serum” value (Gadd45β/MKK7 interaction [2]) of the same compound?
A: significant loss of activity

Q: With `N=C(N)NCCC[C@H](NC(=O)[C@H](CCC(=O)O)NC(=O)[C@H](Cc1ccc(O)cc1)NC(=O)OCc1ccccc1)C(=O)N[C@@H](Cc1ccccc1)C(N)=O` [Z-YERF-NH2] (Cbz-YERF-NH2) as the compound, how does the “tumoricidal/cytotoxic activity in tumour cell lines” value [1] read?
A: low activity

Q: What about the IC50 (Gadd45β/MKK7 interaction [2]) of the same compound?
A: > 10 µM

Q: What about the “stability after pre-incubation with human serum” value (Gadd45β/MKK7 interaction [2]) of the same compound?
A: significant loss of activity

Q: And the “% Inhibition of Gadd45β-MKK7 binding” value (Gadd45β/MKK7 interaction [3])?
A: 78%
